{
  "source": "patent US7691896B2",
  "about": "“Analogs of salinosporamide A” (President and Fellows of Harvard College, priority 2005, dated 2010)",
  "origin": "cited, not measured here",
  "system": "PC12 cells",
  "settings": "Tsubuki et al. 1993",
  "note": "Peptide text beside a SMILES is read from it. * marks the point of attachment. Cbz = O=C(OCc1ccccc1)*",
  "data": [
    {"compound": "CC(C)C[C@@H](C=O)NC(=O)[C@H](CC(C)C)NC(=O)[C@H](CC(C)C)NC(=O)OCc1ccccc1", "note": "[benzyloxycarbonyl (Z)-Leu-Leu-leucinal] (Cbz-Leu-Leu-Leu-aldehyde)", "values": [
      {"measurement": "optimal concentration inducing neurite outgrowth", "value": 30, "unit": "nM"}
    ]}
  ]
}
